# Test: Baboon PET study: plasma analysis / input function of parent compound
# Assay type: in vivo
# Details: baboons; for Vbol (initial distribution volume of parent compound) / Clearance of parent compound: i.v.; for Vbol (initial distribution volume of parent compound) / Clearance / Clearance of parent compound: mean ± SD of four experiments; for Clearance: male, monkey, arterial plasma, iv
# Procedure: PET imaging protocol: PET experiments (n=20) were performed at Columbia University. Two adult male baboons (baboon A and B) were studied twice with each of the 5 radioligands (4 experiments per radioligand). All experiments took place within a 9-month period. Baboons A and B were 31 kg and 21 kg in weight at the beginning of the experimental period and 28 and 22 kg at the end, respectively.
# Experiments were performed according to protocols approved by the Columbia-Presbyterian Medical Center Institutional Animal Care and Use Committee. […] Vital signs were monitored every 10 minutes and the temperature was kept constant at 37° C. with heated water blankets. An i.v. perfusion line was used for hydration and injection of radioligands and nonradioactive drugs. A catheter was inserted in a femoral artery for arterial blood sampling. Head was positioned at the center of the field of view as defined by imbedded laser lines. PET imaging was performed with the ECAT EXACT HR+PET scanner (Siemens/CTI, Knoxville, Tenn.). […] A 15 minute transmission scan was obtained prior to radioligand injection for attenuation correction. Activity was injected i.v. over 30 seconds.
# Input function measurements: Arterial samples were collected every 5 seconds with an automated system for the first two minutes and manually thereafter at various intervals. A total of 28 samples were collected.
# Selected plasma samples (n=6 per study, collected at 2, 4, 12, 30, 60 and 90 minutes after radioligand administration) were further processed by extraction with methanol (MeOH) followed by HPLC analysis to measure the fraction of plasma activity representing unmetabolized parent compound. The parent fraction was measured as follows: plasma (0.5 mL) was pipetted into a centrifuge tube containing MeOH (1.0 mL). […] The liquid phase was separated from the precipitate. Activity in 0.1 mL of the liquid phase was counted and the rest was injected onto the HPLC. The HPLC eluate was fraction-collected in 6 counting tubes (4.0 mL each). The HPLC system consisted of a Waters 510 isocratic pump, a Rheodyne injector equipped with a 2 mL sample loop, a C18 analytical column (Phenomenex ODS-prep, 10 μm, 4.6×250 mm), a Bioscan Flow Cell gamma detector (Bioscan, Washington, D.C.), and a fraction collector. The column was eluted with a mixture of acetonitrile and aqueous 0.1 M ammonium formate (proportion depending on the tracer being analyzed) at a flow rate of 2 mL/minute. Before plasma sample analysis, the retention time of the parent tracer was established by injection of a few μCi of the tracer and detection of the peak using the Bioscan gamma detector.
# The parent fraction was calculated as the ratio of activity in the fractions containing the parent to that of the total activity collected. A biexponential function was fitted to the six measured parent fractions, and used to interpolate values between and after the measurements. […] The input function was then calculated as the product of total counts and interpolated fraction parent at each time point. The measured input function values were fitted to a sum of three exponentials, and the fitted values were used as input for the kinetic analyses. […] The initial distribution volume (Vbol, L) was calculated as the ratio of injected dose to peak plasma concentration.
Compound,Vbol (initial distribution volume of parent compound),Clearance,Clearance of parent compound,Parent fraction in plasma at 30 minutes
CN(C)Cc1ccccc1Sc1ccc(I)cc1N [[^11C]ADAM],8.1 ± 3.1 L,1120 mL/min,–,–
"CN([11CH3])Cc1ccccc1Sc1ccc(CF)cc1N [[^11C]AFM, [^11C]2-[2-(Dimethylaminomethyl)phenylthio]-5-fluoromethylphenylamine]",17.6 ± 1.3 L,–,90 ± 46 L/h,–
CN(C)Cc1ccccc1Sc1ccc(Br)cc1N [[^11C]DAPA],8.5 ± 1.8 L,967 mL/min,–,–
CN(C)Cc1ccccc1Sc1ccc(C#N)cc1N [[^11C]DASB],12.6 ± 2.2 L,1400 mL/min,–,20±1%
[11CH3]Sc1ccc([C@H]2CN3CCC[C@H]3c3ccccc32)cc1 [[^11C]McN 5652],5.9 ± 1.8 L,–,58 ± 13 L/h,28±13%
